Experimental data taken from patent US12139492B2 (Endotarget Inc., priority 2021, dated 2024).
Read-outs that look alike come from different tables or passages of the source.

What was measured:
[1] = biological target: T1, BTK (Homo sapiens, UniProt Q06187); assay: Degradation of BTK protein in JeKo-1 cells (Western blot; DC50, Dmax); details: JeKo-1 mantle cell lymphoma cells, various concentrations, 24 hours
Procedure: (§5) Namalwa, JeKo-1, or Mino cells were plated in 24-well plates at a density of 10^5 cells/well. Media containing various drug concentrations were added on the day following plating (day 0) and allowed to incubate for 24 hours for Western blot. Media with the tested compound was changed every other day. […] Media were removed and dishes were washed with 1×DPBS. Lysates were made by adding 150 μL of complete lysis solution and scraping cells into a 1.5 mL microcentrifuge tube. Lysates were placed on a rotisserie at 4° C. for 30 min and then spun at 4° C. at 12000 rcf for 10 min. Supernatants were assayed for protein content, snap-frozen, and stored a −80° C. if not run immediately. Then 50 μg of protein was subjected to Western blot protocol. […] They were then imaged on a LICOR infrared scanner.

[2] = test system: primary human CLL cell CTG-3754; assay: Ex vivo cell inhibition, Cell Titer Glo viability, primary CLL cell CTG-3754; assay type: cell-based; details: 10 nM to 50 μM, 6 days
Procedure: (§1) Primary human Human Chronic Lymphocytic Leukemia cell lines were used to measure ex vivo cell inhibition by exemplary compounds. The cells were incubated with test compounds at a dose range of 10 nM to 50 μM for 6 days. Cell Titer Glo data were gathered for cell viability evaluation.

[3] = biological target: T1, BTK; assay: Degradation of BTK protein in Namalwa cells (Western blot; DC50, Dmax); details: Namalwa B lymphocyte cells, Western blot; for degradation of BTK protein: various concentrations, 24 hours
[4] = test system: JeKo-1 cells; assay: Antiproliferative effect, MTS cell viability assay, JeKo-1 cells; assay type: cell-based; details: Homo sapiens; JeKo-1 mantle cell lymphoma cells; read-out: IC50 (anti-proliferation) JeKO-1 cells
Procedure, shortened: (§2)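 Steps: seed B-cell lymphoma line; add compound at 0, 0.001, 0.01, 0.1, 1 or 10 μM; incubate 72 h; add MTS and read reduced tetrazolium (formazan) absorbance at 490 nm.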

[5] = test system: MOLT-4 cell; assay: Cell apoptosis by flow cytometry, MOLT-4 cells; assay type: cell-based; details: 1 and 10 μM, 72 hours, in vitro
Procedure: (§3) Cell apoptosis induced by treatment of exemplary compounds was measured by flow cytometry.
(§4) Flow cytometry analysis was performed after staining of the cells with PI and 7-AAD. For PI staining, 0.5×10^6 cells/mL were centrifuged at 1500 rpm for 5 min, supernatant was removed, and cell pellet was gently suspended with 1 ml Krishan buffer and then incubated at 4° C. in the dark for 60 min. Apoptosis was determined by Cytomic's FC500 Flow Cytometer (Beckman Coulter) and the data were analyzed by Win Cycle Multicycle Software (De Novo Software). For the 7-AAD staining, 0.5×10^6 cells were washed with PBS and centrifuged at 1500 rpm for 5 min. Supernatant was removed and the cell pellet was suspended in 100 μL PBS. 10 μL 7-AAD was added to each tube and incubated for 20 min at room temperature in the dark. 7-AAD labeled-cells were analyzed by Cytomic's FC500 Flow Cytometry (Beckman Coulter) and FCS Express Flow Cytometry Data Analysis software (DeNovo Software). For morphologic analysis of apoptosis by light microscopy, cells were incubated with Mock or with […] for 72 h. Control or drug treated-cells were cytospun on glass slides, stained with Wright-Giemsa, and then examined by light microscopy. Morphological changes associated with apoptosis included cellular shrinkage, nuclear condensation, nuclear fragmentation, and formation of apoptotic bodies. […]

[6] = biological target: T1, BTK; assay: BTK degradation, DC50 and Dmax of Table 1 (cell line not given); assay type: cell-based; set-up: endogenous in cells; details: for DC50: concentration giving 50% reduction of BTK expression level
[7] = test system: Mino cell; assay: Cell apoptosis by flow cytometry, Mino cells; assay type: cell-based; details: 1 and 10 μM, 72 hours, in vitro
Procedure: as §3, §4

[8] = test system: JeKo-1 cell; assay: Cell apoptosis by flow cytometry, JeKo-1 cells; assay type: cell-based; details: 0.1, 1, and 10 μM, 72 hours, in vitro
Procedure: as §3, §4

[9] = test system: primary human CLL cell CTG-3763; assay: Ex vivo cell inhibition, Cell Titer Glo viability, primary CLL cell CTG-3763; assay type: cell-based; details: 10 nM to 50 μM, 6 days
Procedure: as §1

[10] = test system: Jeko-1 xenograft tumor; assay: In vivo tumor inhibition efficacy, JeKo-1 xenograft in NOD/SCID mice; details: 20 mg/kg daily oral gavage for 3 weeks
Procedure: JeKo-1 cells were obtained from American Type Culture Collection (ATCC, Manassas, VA). cells were maintained in RPMI 1640 (Life Technologies, Grand Island, NY) supplemented with 10% heat-inactivated fetal bovine serum (56° C. for 30 minutes), penicillin (10,000 units/mL; Sigma, St Louis, Mo), streptomycin (10 mg/mL; Sigma), gentamicin (50 mg/mL; Life Technologies), amphotericin B (25 mg/mL; Sigma), and L-glutamine (200 mM, 29.2 mg/mL; Life Technologies). culture, as previously described (29, 30). JeKo-1 cells (10 million) were subcutaneously implanted into the flank of NOD/SCID mice. When the average tumor volume reached approximately 300 mm^3, the following treatments were administered in cohorts of 5 mice for each treatment: vehicle alone, 20 mg/kg ibrutinib, 20 mg/kg Compound 2, and 20 mg/kg Compound 161 was administered daily via oral gavage for 3 weeks. Tumor growth was monitored every other day by calipers and tumor volume was calculated using the equation: (½(length×width^2)).

[11] = test system: Mino cells; assay: Antiproliferative effect, MTS cell viability assay, Mino cells; assay type: cell-based; details: Homo sapiens, Mino mantle cell lymphoma cells, read-out: IC50 (anti-proliferation) Mino cells
Procedure, shortened: as §2

[12] = test system: Namalwa cell; assay: Cell apoptosis by flow cytometry, Namalwa cells; assay type: cell-based; details: 1 and 10 μM, 72 hours, in vitro
Procedure: as §3, §4

[13] = biological target: T1, BTK; assay: Degradation of BTK protein in Mino cells (Western blot; DC50, Dmax); details: Mino mantle cell lymphoma cells, various concentrations, 24 hours
Procedure: as §5

T1 sequence (Q06187 whole entry): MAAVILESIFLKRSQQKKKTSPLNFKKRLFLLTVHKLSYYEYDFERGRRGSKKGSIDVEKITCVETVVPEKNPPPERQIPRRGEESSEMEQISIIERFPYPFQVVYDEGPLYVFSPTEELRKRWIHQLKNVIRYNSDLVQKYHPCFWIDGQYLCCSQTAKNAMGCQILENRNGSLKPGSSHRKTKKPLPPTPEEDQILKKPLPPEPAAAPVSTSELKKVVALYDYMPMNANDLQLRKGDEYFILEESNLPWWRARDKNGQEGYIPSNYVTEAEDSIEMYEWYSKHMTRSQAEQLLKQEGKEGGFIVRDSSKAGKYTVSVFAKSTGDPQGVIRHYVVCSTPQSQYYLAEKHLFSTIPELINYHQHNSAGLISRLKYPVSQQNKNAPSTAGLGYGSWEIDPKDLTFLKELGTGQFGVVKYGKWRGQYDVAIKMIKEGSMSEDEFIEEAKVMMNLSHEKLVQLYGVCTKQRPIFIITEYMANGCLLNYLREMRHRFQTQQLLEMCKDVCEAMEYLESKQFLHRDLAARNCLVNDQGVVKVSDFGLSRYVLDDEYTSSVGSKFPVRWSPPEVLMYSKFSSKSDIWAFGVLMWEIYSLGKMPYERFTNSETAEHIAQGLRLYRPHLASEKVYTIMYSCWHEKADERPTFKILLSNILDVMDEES

| SMILES | degradation of BTK protein [1] | effect on primary human CLL cell viability [2] | degradation of BTK protein [3] | IC50 [4] [µM] | induction of cell apoptosis [5] | Dmax [6] [%] | DC50 [6] [µM] | induction of cell apoptosis [7] | induction of cell apoptosis [8] | effect on primary human CLL cell viability [9] | efficacy in inhibiting xenograft tumor growth [10] | IC50 ([11]; MINO) [µM] | induction of cell apoptosis [12] | degradation of BTK protein [13] | IC50 [11] [µM] | degradation of BTK protein at 10^−6 M ([3]; 10^−6 M) |
| --- | --- | --- | --- | --- | --- | --- | --- | --- | --- | --- | --- | --- | --- | --- | --- | --- |
| Nc1ncnc2c1c(-c1ccc(Oc3ccccc3)cc1)nn2C1CCN(CCOCCOCCN2CCN(c3ccc4c(c3)CN(C3CCC(=O)NC3=O)C4=O)CC2)CC1 (stereo not drawn) [Compound 2, 3-(5-(4-(2-(2-(2-(4-(4-amino-3-(4-phenoxyphenyl)-1H-pyrazolo(3,4-d)pyrimidin-1-yl)piperidin-1-yl)ethoxy)ethoxy)ethyl)piperazin-1-yl)-1-oxoisoindolin-2-yl)piperidine-2,6-dione] | dose-dependent degradation | dose-dependent effect | dose-dependent degradation | < 1 | induction of MOLT-4 cell apoptosis | > 90 | < 0.01 | induction of Mino cell apoptosis | induction of JeKo-1 cell apoptosis | dose-dependent effect | inhibiting Jeko-1 xenograft tumor growth | < 1 | induction of Namalwa cell apoptosis | – | – | – |
| Nc1ncnc2c1c(-c1ccc(Oc3ccccc3)cc1)nn2[C@@H]1CCCN(CC2CCN(C(=O)N3CCC(N4CCN(c5ccc6c(c5)CN(C5CCC(=O)NC5=O)C6=O)CC4)CC3)CC2)C1 (stereo partly drawn) [Compound 28, 3-(5-(4-(1-(4-(((R)-3-(4-amino-3-(4-phenoxyphenyl)-1H-pyrazolo(3,4-d)pyrimidin-1-yl)piperidin-1-yl)methyl)piperidine-1-carbonyl)piperidin-4-yl)piperazin-1-yl)-1-oxoisoindolin-2-yl)piperidine-2,6-dione] | dose-dependent degradation | – | dose-dependent degradation | 1 to 10 | – | > 90 | 0.01 to 0.05 | – | – | – | – | – | – | dose-dependent degradation | < 1 | – |
| Nc1ncnc2c1c(-c1ccc(Oc3ccccc3)cc1)nn2[C@@H]1CCCN(C2CCN(C(=O)N3CCC(N4CCN(c5ccc6c(c5)CN(C5CCC(=O)NC5=O)C6=O)CC4)CC3)CC2)C1 (stereo partly drawn) [Compound 162, 3-(5-(4-(1-((R)-3-(4-amino-3-(4-phenoxyphenyl)-1H-pyrazolo(3,4-d)pyrimidin-1-yl)-(1,4′-bipiperidine)-1′-carbonyl)piperidin-4-yl)piperazin-1-yl)-1-oxoisoindolin-2-yl)piperidine-2,6-dione] | dose-dependent degradation | – | dose-dependent degradation | < 1 | – | > 90 | < 0.01 | – | – | – | – | – | – | dose-dependent degradation | < 1 | – |
| Nc1ncnc2c1c(-c1ccc(Oc3ccccc3)cc1)nn2[C@@H]1CCCN(C2CCN(C(=O)N3CCC(N4CCN(c5ccc6c(c5)C(=O)N(C5CCC(=O)NC5=O)C6=O)CC4)CC3)CC2)C1 (stereo partly drawn) [Compound 161, 5-(4-(1-((R)-3-(4-amino-3-(4-phenoxyphenyl)-1H-pyrazolo(3,4-d)pyrimidin-1-yl)-(1,4′-bipiperidine)-1′-carbonyl)piperidin-4-yl)piperazin-1-yl)-2-(2,6-dioxopiperidin-3-yl)isoindoline-1,3-dione] | – | – | dose-dependent degradation | < 1 | – | > 90 | 0.01 to 0.05 | – | – | – | inhibiting Jeko-1 xenograft tumor growth | < 1 | – | – | – | degradation |
| Nc1ncnc2c1c(-c1ccc(Oc3ccccc3)cc1)nn2C1CCN(CCOCCOCCN2CCN(c3ccc4c(c3)C(=O)N(C3CCC(=O)NC3=O)C4=O)CC2)CC1 (stereo not drawn) [Compound 1] | – | dose-dependent effect | dose-dependent degradation | 1 to 10 | – | > 90 | 0.01 to 0.05 | – | – | dose-dependent effect | – | 1 to 10 | – | – | – | – |
| Nc1ncnc2c1c(-c1ccc(Oc3ccccc3)cc1)nn2[C@@H]1CCCN(C(=O)N2CCC(N3CCN(c4ccc5c(c4)CN(C4CCC(=O)NC4=O)C5=O)CC3)CC2)C1 (stereo partly drawn) [Compound 52, 3-(5-(4-(1-((R)-3-(4-amino-3-(4-phenoxyphenyl)-1H-pyrazolo(3,4-d)pyrimidin-1-yl)piperidine-1-carbonyl)piperidin-4-yl)piperazin-1-yl)-1-oxoisoindolin-2-yl)piperidine-2,6-dione] | dose-dependent degradation | – | dose-dependent degradation | < 1 | – | > 90 | < 0.01 | – | – | – | – | < 1 | – | dose-dependent degradation | – | – |
